Data: US7491796B1, “Retro-inversion peptides that target GIT receptors and related methods” (Merrion Research III Limited, priority 1998, dated 2009)
Where no end group is shown, it is not given here. The star is where a group is joined. Dansyl = CN(C)c1cccc2c(S(=O)(=O)*)cccc12

Tested on: Caco-2 cell membrane (P100) fractions
Experiment: Binding of dansylated peptides to Caco-2 cell membrane (P100) fractions by ELISA
Details: for Kd: Caco-2 P100 fractions, ELISA, read-out: KD (concentration of the peptide required to reach half maximal binding to Caco-2 P100 fractions); for Binding to P100 relative to ZElan021 (arbitrary value 1.00), P100 assay number 7: assay 7; for Binding to P100 relative to ZElan021 (arbitrary value 1.00), P100 assay number 7 / Binding to P100 relative to ZElan021 (arbitrary value 1.00), P100 assay number 8 / Binding to P100 relative to ZElan021 (arbitrary value 1.00), P100 assay number 4 / Binding to P100 relative to ZElan021 (arbitrary value 1.00), P100 assay number 5 / Binding to P100 relative to ZElan021 (arbitrary value 1.00), P100 assay number 6: peptide at 25 μg/ml; for Binding to P100 relative to ZElan021 (arbitrary value 1.00), P100 assay number 8: assay 8; for Binding to P100 relative to ZElan021 (arbitrary value 1.00), P100 assay number 4: assay 4; for Binding to P100 relative to ZElan021 (arbitrary value 1.00), P100 assay number 5: assay 5; for Binding to P100 relative to ZElan021 (arbitrary value 1.00), P100 assay number 6: assay 6
Description: Similar to the methods described in the above-referenced WO 98/51325, Caco-2 cell membrane (P100) and cytosolic (S100) fractions were prepared using a modification of the method described in Kinsella, B. T., O'Mahony, D. J. and G. A. FitzGerald, 1994, J. Biol. Chem. 269(47): 29914-29919. Confluent Caco-2 cell monolayers (grown in 75 cm^2 flasks for up to 1 week at 37° C. and 5% CO2) were washed twice in Dulbecco's PBS (DPBS) and the cells were harvested by centrifugation at 1000 rpm after treatment with 10 mM EDTA-DPBS. The cells were washed 3 times in DPBS and the final cell pellet was resuspended in 3 volumes of ice cold HED buffer (20 mM HEPES (pH 7.67), 1 mM EGTA, 0.5 mM dithiothreitol, 1 mM phenylmethylsulphonyl fluoride (PMSF)). The cells were allowed to swell for 5 min on ice prior to homogenization for 30 sec. The homogenates were centrifuged at 40,000 rpm for 45 min at 4° C. The supernatant (S100) was removed and the pellet (P100) was resuspended in HEDG buffer (20 mM HEPES (pH 7.67), 1 mM EGTA, 0.5 mM dithiothreitol, 100 mM NaCl, 10% glycerol, 1 mM PMSF). Protein concentrations were determined using the Bradford assay (Bradford, M. M., 1976, Anal. Biochem. 72: 248-254).
Binding of peptides to membrane (P100) was assessed by detection of the dansyl moiety incorporated in the peptide. Costar ninety six well ELISA plates were coated with P100 fractions (100 μg/ml in 0.05 M NaHCO3 (pH 9.6); 100 μl/well) overnight at 4° C. The plates were blocked with 2% Marvel-DPBS for 1 h at room temperature and washed 3 times in 1% DPBS-Tween. Peptides (200 μg/ml in 2% Marvel-DPBS) were serially diluted on the plates and incubated for 1 h at room temperature. The plates were washed 5 times and the dansylated peptides were detected using i) mouse anti-dansyl antiserum (Cytogen DB3-226.3; 1:1340 dilution in 2% Marvel-DPBS) or ii) rabbit anti-dansyl antiserum (La Jolla Diagnostics LAJD-119; 1:1000 dilutions) for 1 h at room temperature. The plates were washed 3 times prior to incubation with i) goat anti-mouse IgGλ:HRP antibody (Southern Biotechnology 1060-05; 1:10,000 dilution in 2% Marvel-DPBS) or ii) anti-rabbit IgG HRP (Sigma A-0545, 1:8,000) for 1 h at room temperature. After 3 washes, reactions were visualized using K Blue Substrate and Red Stop Solution (Neogen Co. 300176 & 301475, respectively) at 650 nm.
ZElan021, full length HAX42 [K(dns)-[…]] (SEQ ID NO:53; dansylated version is SEQ ID NO:8) was given the arbitrary value of 1.00 for binding to P100 at a given peptide concentration determined from the signal-to-noise ratio data. […] Assay number 1 was at 20 μg/ml; 2 and 3 were at 50 μg/ml; and 4 through 8 were at 25 μg/ml.
KD values, or the concentration of the peptide required to reach half maximal binding to Caco-2 P100 fractions, are given in Table 3 for ZElan021, full length HAX42, [K(dns)-[…]] (SEQ ID NO:53; dansylated version is SEQ ID NO:8), HAX42 fragment ZElan091, and the retro-inverted form of this fragment, ZElan146 as well as for ZElan018, full length PAX2, [K(dns)-STPPSREAYSRPYSVDS […]] (SEQ ID NO:7; dansylated version is SEQ ID NO:15), PAX2 fragment ZElan129, and the retro-inverted form of this fragment, ZELan144.

Row | Substance | Kd [µM] | Binding to P100 relative to ZElan021 (arbitrary value 1.00), P100 assay number 7 | Binding to P100 relative to ZElan021 (arbitrary value 1.00), P100 assay number 8 | Binding to P100 relative to ZElan021 (arbitrary value 1.00), P100 assay number 1 (assay 1, peptide at 20 μg/ml) | Binding to P100 relative to ZElan021 (arbitrary value 1.00), P100 assay number 2 (assay 2, peptide at 50 μg/ml) | Binding to P100 relative to ZElan021 (arbitrary value 1.00), P100 assay number 3 (assay 3, peptide at 50 μg/ml) | Binding to P100 relative to ZElan021 (arbitrary value 1.00), P100 assay number 4 | Binding to P100 relative to ZElan021 (arbitrary value 1.00), P100 assay number 5 | Binding to P100 relative to ZElan021 (arbitrary value 1.00), P100 assay number 6
1 | K(dns)-TNAKHSSHNRRLRTR (K(Dansyl)TNAKHSSHNRRLRTR) [ZElan129, dansylated PAX2 15 mer fragment] | 29.6 |  |  |  |  |  |  |  | 
2 | K(dns)-gtsngngccnydgp [ZElan146] | 21.7 | 0.36 | 0.72 |  |  |  |  |  | 
3 | K(dns)-rtrlrrnhsshkant [ZElan144] | 28.8 |  |  |  |  |  |  |  | 
4 | K(dns)-SDHALGTNLRSDNAKEPGDYNCCGNGNSTGRKVFNRRRPSAIPT (K(Dansyl)SDHALGTNLRSDNAKEPGDYNCCGNGNSTGRKVFNRRRPSAIPT; cysteine pairing not given here) [ZElan021, dansylated full length HAX42] | 6.7 | 1.14 | 0.94 | 1.00 | 1.00 | 1.00 | 1.00 | 1.00 | 1.00
5 | K(dns)-PGDYNCCGNGNSTG [ZElan091] | 0.75 | 0.85 |  |  |  |  | 2.02 | 1.37 | 1.20
6 | K(dns)-STPPSREAYSRPYSVDS DSDTNAKHSSHNRRLRTRSRPNG (K(Dansyl)STPPSREAYSRPYSVDSDSDTNAKHSSHNRRLRTRSRPNG) [ZElan018, dansylated full length PAX2] | > 50 |  |  |  |  |  |  |  | 
